The values below come from patent publication US10391143B2, “Mitochondrial-derived peptide MOTS3 regulates metabolism and cell survival” (THE REGENTS OF THE UNIVERSITY OF CALIFORNIA, priority 2013, dated 2019).

Type in all cases: in vivo
The test system of data set [1] is ZDF diabetic rats. As to the kind of experiment: Blood sugar in ZDF diabetic rats after 6 days of treatment. To be noted: IV daily for 6 days; MOTS-c 1 mg per 400 gram rat. Here is the method: FIG. 33 describes Day 6 fasting blood sugars. ZDF diabetic rats were followed until their blood sugar was […], at which point treatment was initiated with one of two doses of MOTS-c or insulin, given IV at 8 AM for 6 days. 6 rats per group were used. Fasting blood sugars were measured after 6-days. ANOVA and student t-tests were used for analysis and p-values.
FIG. 34 describes absolute change in blood glucose at Day 6. In the same experiment described in FIG. 33, absolute changes in blood glucose are shown.

Data set [2] deals with breast cancer (4T1). As to the kind of experiment: Breast cancer subcutaneous allograft mouse model. The following applies: 4T1 allograft mice.
Data set [3] has as its system prostate cancer (22Rv1). As to the kind of experiment: Prostate cancer subcutaneous allograft mouse model. The following applies: 22Rv1 allograft mice.

Ends that are not written are not given here.

With “insulin: insulin given IV daily for 6 days as comparator in ZDF diabetic rats”, in data set [1], the “absolute change in blood glucose at Day 6” value is listed as “stabilize their blood sugar at levels similar to baseline”. For “MRWQEMGYIFYPRKLR [MOTS3, MRWQEMGYIFYPRKLR]”, the “toxicity as reflected by body weight maintenance” value in data set [2] and in data set [3] was “not toxic” each time.
